In patent US4485110A, “β-Lactam compounds, and use” (priority 1980, dated 1984):
Where two headings read alike, the source gives them in different places.

Tests used:
Experiment in all cases: Antibacterial activity, broth MIC
Assay type in all cases: cell-based
[1] = system: S. pneumoniae CN 33; details: Streptococcus pneumoniae, CN33, compound alone
Description: (§1) The antibacterial activity of a number of compounds described in the foregoing Examples against a number of organisms is shown in Tables 1 and 10.

[2] = system: P. aeruginosa A; details: Pseudomonas aeruginosa, compound alone
Description: as §1

[3] = system: P. vulgaris WO 91; details: Proteus vulgaris, WO91, compound alone
Description: as §1

[4] = system: P. mirabilis 977; details: Proteus mirabilis, compound alone
Description: as §1

[5] = system: E. coli 0111; details: Escherichia coli, compound alone
Description: as §1

[6] = system: C. freundii E 8; details: Citrobacter freundii
Description: as §1

[7] = system: K. aerogenes A; details: Klebsiella aerogenes, read-out: Broth MIC
Description: as §1

[8] = system: S. aureus Oxford; details: Staphylococcus aureus, compound alone
Description: as §1

[9] = system: S. sonnei MB 11967; details: Shigella sonnei, MB11967, compound alone
Description: as §1

[10] = system: S. typhimurium CT 10; details: Salmonella enterica, compound alone
Description: as §1

[11] = system: P. rettgeri WM 16; details: Providencia rettgeri, WM16, compound alone
Description: as §1

[12] = system: S. pyogenes CN 10; details: Streptococcus pyogenes, CN10, compound alone
Description: as §1

[13] = system: S. faecalis I; details: Enterococcus faecalis, read-out: Broth MIC
Description: as §1

[14] = system: B. subtilis A; details: Bacillus subtilis, compound alone
Description: as §1

[15] = system: E. coli JT 39 R^+; details: Escherichia coli, read-out: Broth MIC
Description: as §1

[16] = system: E. cloacae N 1; details: Enterobacter cloacae, N1, compound alone
Description: as §1

[17] = system: S. aureus 1517; details: Staphylococcus aureus, compound alone
Description: as §1

[18] = system: E. coli ESS; details: Escherichia coli, read-out: Broth MIC
Description: as §1

[19] = system: S. marcescens US 20; details: Serratia marcescens
Description: as §1

[20] = system: P. morganii I 580; details: Morganella morganii, I580, compound alone
Description: as §1

[21] = system: S. aureus Russell; details: Staphylococcus aureus, compound alone
Description: as §1

[22] = E8, compound alone, broth, read-out: Broth MIC
[23] = US20, compound alone, broth, read-out: Broth MIC

Row | Structure (SMILES) | MIC [2] [µg/mL] | MIC [3] [µg/mL] | MIC [4] [µg/mL] | MIC [5] [µg/mL] | MIC [6, 22] [µg/mL] | MIC ([7]; compound alone, broth) [µg/mL] | MIC [8] [µg/mL] | MIC [9] [µg/mL] | MIC [10] [µg/mL] | MIC [11] [µg/mL] | MIC [12] [µg/mL] | MIC ([13]; compound alone, broth) [µg/mL] | MIC [14] [µg/mL] | MIC ([15]; compound alone, broth) [µg/mL] | MIC [16] [µg/mL] | MIC [17] [µg/mL] | MIC ([18]; compound alone, broth) [µg/mL] | MIC [19, 23] [µg/mL] | MIC [20] [µg/mL] | MIC [21] [µg/mL] | further results
1 | C/C=C1\C(=O)N2C(C(=O)O)=C(SCC)SC12 (racemic) [Compound 29, (5RS)-Sodium (E)-6-Ethylidene-2-ethylthiopenem-3-carboxylate] | > 500 | 62 | 125 | 31 | 62 | 16 | 2 | 62 | 62 | 62 | 4 | 250 | 2 | 31 | 31 | 16 | 2 | 62 | 31 |  | MIC [1]: 1 µg/mL
2 | C/C=C1/C(=O)N2C(C(=O)O)=CSC12 (racemic) [Compound 40, (5RS)-Sodium(Z)-6-Ethylidenepenem-3-carboxylate] | 250 | 250 | 250 | 62 | 125 | 62 | 8 | 62 | 62 | 125 | 8 | > 250 | 31 | 62 | 125 | 125 | 16 | 250 | 250 | 16 | MIC [1]: 31 µg/mL
3 | C/C=C1/C(=O)N2C(C(=O)O)=C(CCC)SC12 (racemic) [Compound 49, (5RS)-Sodium(Z)-6-Ethylidene-2-n-propylpenem-3-carboxylate] | > 250 | 62 | 62 | 125 |  | 31 | 1 | 62 | 62 | 62 |  |  | 1 | 62 | 62 | 62 | 1 |  | 31 | 2 | MIC [1]: ≤ 0.2 µg/mL; MIC ([6]; E8, read-out: Broth MIC): 125 µg/mL; MIC [13]: 125 µg/mL; MIC ([19]; US20, read-out: Broth MIC): 125 µg/mL
4 | CC=C1C(=O)N2C(C(=O)O)=C(SCCNC(C)=O)SC12 (racemic) [Compound 59, (5RS)-Sodium 2-(2-Acetamidoethylthio)-6-ethylidenepenem-3-carboxylate] | > 100 | 25 | 25 | 25 | 25 |  | 3.1 | 25 | 12.5 | 25 | ≤ 0.1 | 100 | 3.1 |  | 25 | > 100 | 3.1 | 25 | 25 | 3.1 | MIC [1]: 0.2 µg/mL; MIC [7]: 12.5 µg/mL; MIC [15]: 12.5 µg/mL
5 | C/C=C1/C(=O)N2C(C(=O)O)=C(C)SC12 (racemic) [Compound 76, (5RS)-Sodium (Z)-Ethylidene-2-methylpenem-3-carboxylate] | 100 | > 100 | 100 | 100 | 100 | > 100 | 12.5 | 100 | 100 | > 100 |  | > 100 | 25 | 100 | > 100 | 50 | 6.2 | > 100 | 100 | 6.2 | 
6 | CC=C1C(=O)N2C(C(=O)O)=C(Sc3ccccn3)SC12 (racemic) [Compound 99, (5RS)-Sodium 6-Ethylidene-2-(2-pyridylthio)penem-3-carboxylate] | > 100 | 50 | 100 | 100 | 100 | 50 | 12.5 | 50 | 50 | 25 | 1.6 | > 100 | 6.2 | 50 | 25 | 100 | 3.1 | 50 | 50 | 6.2 | 
7 | CC=C1C(=O)N2C(C(=O)O)=C(SCCN)SC12 (racemic) [Compound 101, (5RS)-Sodium 2-(2-aminoethylthio)-6-ethylidenepenem-3-carboxylate] | > 100 | 100 | > 100 | 100 | 100 | 100 | 3.1 | 100 | 100 | 100 | 3.1 | > 100 | 12.5 | 100 | 100 | > 100 | 12.5 | > 100 | > 100 | 3.1 | 
8 | CC=C1C(=O)N2C(C(=O)O)=C([S+]([O-])CC)SC12 (racemic) [Compound 103, (5RS)-Sodium 6-Ethylidene-2-ethylsulphinylpenem-3-carboxylate] | > 100 | > 100 | 100 | > 100 | > 100 | > 100 | 50 | > 100 | > 100 | > 100 | 12.5 | > 100 | 25 | > 100 | > 100 | > 100 | 100 | > 100 | > 100 | > 100 | MIC [1]: 25 µg/mL
9 | CCSC1=C(C(=O)O)N2C(=O)C(=C(C)C)C2S1 (racemic) [Compound 129, (5RS)-Sodium 2-Ethylthio-6-isopropylidenepenem-3-carboxylate] |  |  |  |  |  |  | 12.5 |  |  |  | 0.4 | 50 | 25 |  |  |  |  |  |  | 12.5 | MIC [1]: 1.6 µg/mL; MIC [18]: 12.5 µg/mL
10 | CCSC1=C(C(=O)O)N2C(=O)C(=Cc3ccccc3)C2S1 (stereo not drawn) [Compound 118, (5RS)-Sodium (Z)-6-Benzylidene-2-ethylthiopenem-3-carboxylate] | > 100 | > 100 | > 100 | > 100 | > 100 | > 100 | 1.6 | > 100 | > 100 | > 100 | 1.6 | > 100 | 12.5 | > 100 | > 100 | 100 |  | > 100 | > 100 | 3.1 | MIC [1]: 1.6 µg/mL; MIC [18]: > 1.6 µg/mL
